According to patent US4642332A, “Effective hormonal peptides: D-3-Pal^6 -LHRH” (The Board of Regents, The University of Texas System, priority 1985, dated 1987):

What was measured:
21 day old female rats = assay: In vivo assay in rats for release of LH and FSH; set-up: species or system rat; conditions: for Serum FSH ng/ml SEM / Serum LH ng/ml SEM: Table IX, blood sample at ±60 minutes; for Serum FSH ng/ml SEM / Serum LH ng/ml SEM / FSH ng/ml Serum ± SEM at +120 min / LH ng/ml Serum ± SEM at +120 min: mean of 6; for FSH ng/ml Serum ± SEM at +120 min / LH ng/ml Serum ± SEM at +120 min: Table X; for +2 hrs LH ± SEM ng/ml serum / FSH ± SEM ng/ml serum (+2 hrs) / +3 hrs LH ± SEM ng/ml serum / FSH ± SEM ng/ml serum (+3 hrs): Table XI, 150 ng sc, mean 5-6; for LH ng/ml Serum ± SEM ± 15 min / LH ng/ml Serum ± SEM ± 60 min: Table VII, dosage 100 mg/rat sc (so in the source)
Experimental: In vivo rat assay performed by a modification of the method of Bowers, C. Y. et al. Endocrinology, 106, 674 (1980). 21 day old female rats were injected sc with saline or peptide. Blood samples for the RIAs of LH and FSH were collected at +15, +60, +120, or +180 minutes. (Tables VI-XI).

[1] = test system: pituitary cells from 21 day old rats; assay: In vitro pituitary incubate assay (release of LH and FSH); assay type: cell-based, rat; conditions: mean of 9
Experimental: The data in Tables IV and V are from the in vitro assay of the peptides with the pituitary incubate. This assay measures the release of LH and FSH in an in vitro system with pituitary cells from 21 day old rats. See, Bowers, C. Y. et al. on the inhibitory effects of leutinizing hormone releasing hormone analogs. Endocrinology, 106: 674 (1980).
The abbreviations are as follows: sc-subcutaneous, SEM-standard error of the mean; NS-not significant; ng-nanogram, and ml-milliliter. The p value represents the population coefficient .rho.(rho) which signifies whether a sample coefficient is significant or a chance deviation from zero.

[2] = Table VI, 15 ng/rat sc, mean of 9
[3] = Table VI, 50 ng/rat sc, mean of 9
[4] = Table VI, 150 ng/rat sc, mean of 9
[5] = Table VIII first section (time not given), 15 ng/rat sc, mean of 5-6
[6] = Table VIII first section (time not given), 50 ng/rat sc, mean of 5-6
[7] = Table VIII first section (time not given), 150 ng/rat sc, mean of 5-6
[8] = Table VIII, ±60 min after injection, 150 ng/rat sc, mean of 5-6
[9] = Table IV, dosage 0.03 ng/ml medium
[10] = Table IV, dosage 0.1 ng/ml medium
[11] = Table IV, dosage 0.3 ng/ml medium
[12] = Table IV, dosage 1.0 ng/ml medium
[13] = Table V, dosage .03 ng/ml medium
[14] = Table V, dosage .10 ng/ml medium
[15] = Table V, dosage .30 ng/ml medium

CCNC(=O)[C@@H]1CCCN1C(=O)[C@H](CCCNC(=N)N)NC(=O)[C@H](CC(C)C)NC(=O)[C@@H](Cc1cccnc1)NC(=O)[C@H](Cc1ccc(O)cc1)NC(=O)[C@H](CO)NC(=O)[C@H](Cc1c[nH]c2ccccc12)NC(=O)[C@H](Cc1c[nH]cn1)NC(=O)[C@@H]1CCC(=O)N1 [Peptide 21436, pyroGlu-His-Trp-Ser-Tyr-D-3-Pal-Leu-Arg-Pro-NHC2 H5]
Serum FSH ng/ml SEM (21 day old female rats; 50 ng/rat sc): 3471 ± 229 ng/mL
Serum LH ng/ml SEM (21 day old female rats; 50 ng/rat sc): 116 ± 20 ng/mL
Serum FSH ng/ml SEM (21 day old female rats; 150 ng/rat sc): 1458 ± 424 ng/mL
Serum LH ng/ml SEM (21 day old female rats; 150 ng/rat sc): 144 ± 37 ng/mL
FSH ng/ml Serum ± SEM at +120 min (21 day old female rats; 50 ng/rat sc): 4692 ± 393 ng/mL
LH ng/ml Serum ± SEM at +120 min (21 day old female rats; 50 ng/rat sc): 291 ± 11 ng/mL
FSH ng/ml Serum ± SEM at +120 min (21 day old female rats; 150 ng/rat sc): 4811 ± 782 ng/mL
LH ng/ml Serum ± SEM at +120 min (21 day old female rats; 150 ng/rat sc): 278 ± 14 ng/mL
+2 hrs LH ± SEM ng/ml serum (21 day old female rats): 237 ± 52 ng/mL
FSH ± SEM ng/ml serum (+2 hrs) (21 day old female rats): 2415 ± 361 ng/mL
+3 hrs LH ± SEM ng/ml serum (21 day old female rats): 106 ± 13 ng/mL
FSH ± SEM ng/ml serum (+3 hrs) (21 day old female rats): 2205 ± 298 ng/mL

LHRH: peptide hormone known as the leutinizing hormone releasing hormone, exists naturally in the hypothalamus
Serum FSH ng/ml SEM (21 day old female rats; 50 ng/rat sc): 909 ± 118 ng/mL
Serum LH ng/ml SEM (21 day old female rats; 50 ng/rat sc): 5 ± 0.5 ng/mL
Serum FSH ng/ml SEM (21 day old female rats; 150 ng/rat sc): 1076 ± 185 ng/mL
Serum LH ng/ml SEM (21 day old female rats; 150 ng/rat sc): 17 ± 3 ng/mL
Serum FFSH ng/ml ± SEM (21 day old female rats; [2]): 475 ± 43 ng/mL
Serum LH ng/ml ± SEM (21 day old female rats; [2]): 1.3 ± 0.2 ng/mL
Serum FFSH ng/ml ± SEM (21 day old female rats; [3]): 572 ± 68 ng/mL
Serum LH ng/ml ± SEM (21 day old female rats; [3]): 3.2 ± 0.3 ng/mL
Serum FFSH ng/ml ± SEM (21 day old female rats; [4]): 839 ± 73 ng/mL
Serum LH ng/ml ± SEM (21 day old female rats; [4]): 12 ± 3 ng/mL
LH ng/ml Serum ± SEM ± 15 min (21 day old female rats): 49 ± 10 ng/mL
LH ng/ml Serum ± SEM ± 60 min (21 day old female rats): 5.5 ± 0.9 ng/mL
Serum FSH ng/ml ± SEM (21 day old female rats; [5]): 1147 ± 489 ng/mL
Serum LH ng/ml ± SEM (21 day old female rats; [5]): 21.0 ± 4.0 ng/mL
Serum FSH ng/ml ± SEM (21 day old female rats; [6]): 2228 ± 448 ng/mL
Serum LH ng/ml ± SEM (21 day old female rats; [6]): 53.9 ± 9.0 ng/mL
Serum FSH ng/ml ± SEM (21 day old female rats; [7]): 1536 ± 172 ng/mL
Serum LH ng/ml ± SEM (21 day old female rats; [7]): 62.0 ± 21.0 ng/mL
Serum FSH ng/ml ± SEM (21 day old female rats; [8]): 2448 ± 209 ng/mL
Serum LH ng/ml ± SEM (21 day old female rats; [8]): 39.0 ± 17 ng/mL
+2 hrs LH ± SEM ng/ml serum (21 day old female rats): .18 ± 0.07 ng/mL
FSH ± SEM ng/ml serum (+2 hrs) (21 day old female rats): 337 ± 20 ng/mL
+3 hrs LH ± SEM ng/ml serum (21 day old female rats): 0.66 ± 0.46 ng/mL
FSH ± SEM ng/ml serum (+3 hrs) (21 day old female rats): 487 ± 72 ng/mL
FSH released (21 day old female rats; dosage of 15 ng): 572 ± 68 ng
release of LH (in words) (21 day old female rats; dosage of 15 ng): inactive
FSH released into medium (ng/ml) ± SEM [1, 9]: 638 ± 292
LH ng/ml medium ± SEM [1, 9]: 52 ± 20 ng/mL
FSH released into medium (ng/ml) ± SEM [1, 10]: 266 ± 235
LH ng/ml medium ± SEM [1, 10]: 214 ± 30 ng/mL
FSH released into medium (ng/ml) ± SEM [1, 11]: 4556 ± 752
LH ng/ml medium ± SEM [1, 11]: 771 ± 162 ng/mL
FSH released into medium (ng/ml) ± SEM [1, 12]: 8063 ± 943
LH ng/ml medium ± SEM [1, 12]: 1434 ± 156 ng/mL
FSH ng/ml medium ± SEM [1, 13]: 598 ± 137 ng/mL
LH ng/ml medium ± SEM [1, 13]: 33 ± 24 ng/mL
FSH ng/ml medium ± SEM [1, 14]: 794 ± 52 ng/mL
LH ng/ml medium ± SEM [1, 14]: 206 ± 42 ng/mL
FSH ng/ml medium ± SEM [1, 15]: 2709 ± 252 ng/mL
LH ng/ml medium ± SEM [1, 15]: 892 ± 92 ng/mL

CNC(=O)[C@@H]1CCCN1C(=O)[C@H](CCCNC(=N)N)NC(=O)[C@H](CC(C)C)NC(=O)[C@@H](Cc1cccnc1)NC(=O)[C@H](Cc1ccc(O)cc1)NC(=O)[C@H](CO)NC(=O)[C@H](Cc1c[nH]c2ccccc12)NC(=O)[C@H](Cc1c[nH]cn1)NC(=O)[C@@H]1CCC(=O)N1 [Peptide 21437, pryoGlu-His-Trp-Ser-Tyr-D-3-Pal-Leu-Arg-Pro-NHCH3]
Serum FSH ng/ml SEM (21 day old female rats; 50 ng/rat sc): 1707 ± 518 ng/mL
Serum LH ng/ml SEM (21 day old female rats; 50 ng/rat sc): 47 ± 8 ng/mL
Serum FSH ng/ml SEM (21 day old female rats; 150 ng/rat sc): 2799 ± 783 ng/mL
Serum LH ng/ml SEM (21 day old female rats; 150 ng/rat sc): 111 ± 26 ng/mL

CCNC(=O)[C@@H]1CCCN1C(=O)[C@H](CCCNC(=N)N)NC(=O)[C@H](CC(C)C)NC(=O)[C@@H](Cc1c[nH]c2ccccc12)NC(=O)[C@H](Cc1ccc(O)cc1)NC(=O)[C@H](CO)NC(=O)[C@H](Cc1c[nH]c2ccccc12)NC(=O)[C@H](Cc1c[nH]cn1)NC(=O)[C@@H]1CCC(=O)N1 [D-Trp^6 Pro^9 Net--LHRH, pyroGlu--His--Trp--Ser--Tyr-- D-Trp--Leu--Arg--Pro--EA**]
LH ng/ml Serum ± SEM ± 15 min (21 day old female rats): 59 ± 10 ng/mL
LH ng/ml Serum ± SEM ± 60 min (21 day old female rats): 228 ± 41 ng/mL
+2 hrs LH ± SEM ng/ml serum (21 day old female rats): 184 ± 29 ng/mL
FSH ± SEM ng/ml serum (+2 hrs) (21 day old female rats): 2260 ± 294 ng/mL
+3 hrs LH ± SEM ng/ml serum (21 day old female rats): 103 ± 9 ng/mL
